Measurements as given in patent publication US9526721B2, “Tetrahydroprotoberbine compounds and uses thereof in the treatment of neurological, psychiatric and neurodegenerative diseases” (priority 2012, dated 2016).
Entries after “also recorded” stand apart in the source; their conditions may differ.

Assays:
5HT4 = biological target: T1, 5HT4 (Homo sapiens, UniProt Q13639); assay: Receptor binding, 5HT4
T1 construct: host or cells: CHO cells
Procedure: (§1) All receptors tested were heterologously expressed CHO cells and IC50 values were determined by a non-linear, least squares regression analysis using MathIQ (ID Business Solution Ltd, UK). Ki was calculated using the equation of Cheng and Prusoff (1973, Biochem. Pharmacol 22:23099-3108) derived from the observed IC50 of the tested compound, the concentration of radioligand employed in the assay, and the historical values for the Kd of the ligand (obtained experimentally at MDS Pharma Services).

5HT6 = biological target: T2, 5HT6 (Homo sapiens, UniProt P50406); assay: Receptor binding, 5HT6; settings: CHO cells
T2 construct: host or cells: CHO cells
T2 sequence (P50406 whole entry, species assumed): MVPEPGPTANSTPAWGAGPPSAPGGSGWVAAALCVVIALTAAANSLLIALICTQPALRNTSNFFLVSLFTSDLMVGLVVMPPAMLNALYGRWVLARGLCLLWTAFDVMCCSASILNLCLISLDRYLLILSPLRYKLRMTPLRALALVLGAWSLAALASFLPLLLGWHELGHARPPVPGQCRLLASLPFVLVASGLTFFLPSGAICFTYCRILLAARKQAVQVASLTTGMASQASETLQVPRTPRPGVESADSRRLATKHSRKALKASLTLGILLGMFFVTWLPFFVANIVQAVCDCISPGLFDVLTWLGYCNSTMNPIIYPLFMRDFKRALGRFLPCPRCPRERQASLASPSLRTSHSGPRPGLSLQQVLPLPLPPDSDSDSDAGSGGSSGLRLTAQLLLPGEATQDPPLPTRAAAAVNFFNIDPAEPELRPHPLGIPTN
Procedure: as §1

D5 = biological target: T3, D5 (Homo sapiens, UniProt P21918); assay: Receptor binding, dopamine D5; settings: receptor expressed in CHO cells
T3 construct: host or cells: CHO cells
T3 sequence (P21918 whole entry): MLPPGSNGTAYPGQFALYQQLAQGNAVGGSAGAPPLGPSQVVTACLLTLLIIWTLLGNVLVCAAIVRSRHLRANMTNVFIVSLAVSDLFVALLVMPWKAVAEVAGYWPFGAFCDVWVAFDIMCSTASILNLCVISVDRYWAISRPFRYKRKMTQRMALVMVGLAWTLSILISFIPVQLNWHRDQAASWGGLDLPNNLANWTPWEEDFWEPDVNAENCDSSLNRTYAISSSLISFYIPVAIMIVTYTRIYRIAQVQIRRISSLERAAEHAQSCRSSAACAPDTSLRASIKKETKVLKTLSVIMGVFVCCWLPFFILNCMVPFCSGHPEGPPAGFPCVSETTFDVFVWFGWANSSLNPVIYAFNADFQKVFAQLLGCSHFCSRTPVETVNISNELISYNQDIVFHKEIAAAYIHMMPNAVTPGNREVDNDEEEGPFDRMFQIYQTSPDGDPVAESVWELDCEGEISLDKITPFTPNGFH
Procedure: All receptors tested were heterologously expressed CHO cells and IC50 values were determined by a non-linear, least squares regression analysis using MathIQ (ID Business Solution Ltd, UK).
All receptors were heterologously expressed CHO cells and IC50 values were determined by a non-linear, least squares regression analysis using MathIQ (ID Business Solution Ltd, UK).

Dopamine D1 receptors = biological target: T4, Dopamine D1 receptors (Homo sapiens, UniProt P21728); assay: Dopamine D1 receptor Adenylyl Cyclase Cellular Assay (cAMP, HTRF); type: cell-based; settings: for IC50: D1 antagonism, cAMP, CHO cells, read-out: IC50 of antagonistic response; for % Response Agonist: increase in cAMP relative to dopamine response; for % Response Agonist / % Response Antagonist: D1 in CHO cells; for % Response Antagonist: inhibition of dopamine-induced cAMP increase
T4 construct: host or cells: CHO cells
T4 sequence (P21728 whole entry): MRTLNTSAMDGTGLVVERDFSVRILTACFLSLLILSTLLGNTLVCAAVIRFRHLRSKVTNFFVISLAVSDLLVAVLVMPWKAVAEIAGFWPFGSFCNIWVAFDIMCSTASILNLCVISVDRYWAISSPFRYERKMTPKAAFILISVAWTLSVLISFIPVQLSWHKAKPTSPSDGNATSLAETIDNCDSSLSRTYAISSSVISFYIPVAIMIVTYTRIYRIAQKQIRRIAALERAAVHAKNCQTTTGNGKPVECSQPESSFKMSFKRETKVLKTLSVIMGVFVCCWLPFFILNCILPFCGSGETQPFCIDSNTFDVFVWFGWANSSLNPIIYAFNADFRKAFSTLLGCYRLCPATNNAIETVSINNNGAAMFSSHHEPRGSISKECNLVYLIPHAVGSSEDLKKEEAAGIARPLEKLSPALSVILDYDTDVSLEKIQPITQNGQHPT
Source text: Methods employed in this Example were adapted from Liu et al (1992, Mol Endocrinol 92:1815-1824) and Zhou et al (1990, Nature 347:76-79) to maximize reliability and reproducibility. Reference standards were run as an integral part of each assay to ensure the validity of the results obtained. […] (+)-Butaclamol was used as a positive control for the assay assessing antagonism. Homogeneous fluorescence methodology HTRF homogeneous fluorescence quantitation methodology was used to measure the levels of cAMP. The criterion for significant agonist activity is ≧50% increase in cAMP relative to dopamine response. The criteria for significant antagonist activity ≧50% inhibition of dopamine-induced cAMP increase.

rats [1] = assay: Catalepsy (bar test); type: in vivo, rat; settings: SC; for catalepsy (immobilized contact time): across doses tested
Procedure: Testing occurred in a plexiglas box (28 cm×45 cm×20 cm) containing a horizontal steel bar located 8 cm above floor level. […] After injection animals were returned to the test box and catalepsy testing occurred at 1, 15, 30, and 45 minutes after injection. Testing at each time point lasted 2 min after the forepaws of each rat was placed on the bar. Behavior was recorded with a video camera (Cohu, Poway, Calif.) and scored off-line. The cumulative time spent immobilized with both forelimbs on the horizontal bar was scored for each 2 min test epoch. Videos selected at random were scored independently by a second observer and a high inter-rater reliability was observed (R^2=0.93, F=393.4, p<0.05).
Catalepsy testing was conducted as described in Example 12.

rats [2] = assay: Latent inhibition; type: in vivo, rat; settings: treatment before each pre-exposure; 1.0 mg/kg d-AMPH before conditioning
Procedure: Sensitization: Animals were removed from the colony and taken to a holding room where they received either IP d-AMPH or saline every Monday, Wednesday, and Friday. Doses started at 1 mg/kg and increased 1 mg/kg each week over 5 weeks to 5 mg/kg. 25 days after the induction phase, behavioral sensitization was assessed over 3 days in locomotor chambers (plexiglass box, 40 cm×40 cm×40 cm) where speed and distance traveled were recorded using Noldus Ethovision XT (Noldus, Leesburg, Va.). The first day consisted of a 2 hr acclimation session, and prior to counter balanced injections of either 0.5 mg/kg d-AMPH or saline on days 2 and 3 animals were acclimated for 1 hr. Experiments were run in two separate cohorts of 30 animals to minimize the time between testing sensitization and LI.
Latent Inhibition: LI tests were performed in rats treated with 1.0 mg/kg acute d-AMPH, sensitized rats, and drug-naive rats. LI testing began 5 days post-challenge of the escalating dose regime. Animals in both conditions (chronic saline or sensitized) were randomly assigned to either non-pre-exposed (NPE) or pre-exposed (PE) groups. Testing took place over 3 consecutive days. […] Animals in the PE group received 50 presentations of the CS (10 sec duration) per day at a variable interval for the first two days. Animals in the NPE group were placed in the chamber for an equal time as the PE animals. Conditioning (COND) consisted of 100 CS-US pairings. Latency to cross into the other compartment and the number of total beam breaks were recorded. Drug-naïve animals receiving acute 1.0 mg/kg AMPH were injected IP 45 min before the COND trial.
The effects of the two individual enantiomers of govadine on latent inhibition (LI) were also tested as described in Example 12.

rats [3] = assay: Social interaction in NVHL and sham rats; type: in vivo, rat; settings: 1.0 mg/kg IP 15 minutes prior to testing
Source text: Experimental rats were neonatal ventral hippocampal lesioned (NVHL) and control (Sham) animals. […] The SI environment consisted of a 83×90×30 cm open field with each surface painted black.

[4] = test system: midbrain dopamine (DA) neurons; assay: Firing of midbrain dopamine neurons in slices (cell-attached recording); type: cell-based, Sprague Dawley rats; settings: co-application with Quinpirole (500 nM)
Procedure: Horizontal midbrain slices (220 μm) were prepared from male Sprague Dawley rats (3-4 weeks old). Cell-attached voltage-clamp recordings were used to examine tonic firing rate of DA neurons at 31-32° C. using patch pipette and bathing solutions consisting of physiological saline. Putative DA neurons were identified by spontaneous pacemaker firing (1-3 Hz) with broad APs (≧2.0 ms). Identified cells not responsive to Quinpirole (500 nM), a D2 DA receptor agonist, were excluded from further recording. Cells were also filled with biocytin or Alexa for posthoc-identification using TH immunostaining.

rats [5] = assay: Conditioned avoidance responding (CAR); settings: SC, 100 CS-US pairings
Procedure: Conditioned avoidance responding (CAR) was performed in a two-way avoidance procedure with drug naive rats in four shuttle boxes (Med Associates, Vt., USA) each consisting of two compartments separated by an open door. Each compartment contained a wall-mounted speaker, house light and 5 photocells to detect the location of the animal. All experimental protocols and data acquisition were controlled by custom programs written in MED-PC.
Before training, each animal received two acclimation sessions lasting 30 min with only the house light illuminated. […] Pairings of the conditioned stimulus (CS) (white noise, ˜60 dB) and the unconditioned stimulus (US) (footshock, 0.75 mA) were presented at random intervals with a mean of 60 sec. The CS was presented for 10 sec. During this time, if the animal moved to the opposite side of the box, the white noise was silenced, no foot shock delivered, and an avoidance response was scored. Upon termination of the 10 sec tone, if the animal had not moved to the opposite side of the box, a foot-shock was administered for 2 sec. […] Failure to avoid or escape constituted a response failure and was scored accordingly. After reaching a criterion of 90% avoidances for a block of 20 trials, usually achieved with ˜100 CS-US pairings, each animal advanced to the drug-testing phase. Animals not meeting the criterion by 120 pairings were excluded from the study.
Pairings were presented just as during training and were scored in the same fashion. The test trial consisted of 100 CS-US pairings.

T1 sequence (Q13639 whole entry, species assumed): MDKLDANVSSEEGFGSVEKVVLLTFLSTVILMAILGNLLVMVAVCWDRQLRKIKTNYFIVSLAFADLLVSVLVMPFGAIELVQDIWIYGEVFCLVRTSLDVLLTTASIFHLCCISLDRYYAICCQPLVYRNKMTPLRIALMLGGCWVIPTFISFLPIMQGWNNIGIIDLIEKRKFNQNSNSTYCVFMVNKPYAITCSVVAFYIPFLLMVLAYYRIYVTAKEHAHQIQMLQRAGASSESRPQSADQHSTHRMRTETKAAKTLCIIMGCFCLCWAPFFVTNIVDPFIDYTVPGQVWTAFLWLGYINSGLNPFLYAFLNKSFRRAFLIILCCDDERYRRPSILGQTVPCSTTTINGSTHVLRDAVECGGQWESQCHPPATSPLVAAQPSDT

SMILES | inhibition at 10 µM (5HT4; 10 μM, CHO cells) [%] | inhibition at 10 µM (5HT6) [%] | Ki (D5) [nM] | IC50 (Dopamine D1 receptors) [nM] | % Response Agonist (Dopamine D1 receptors) [%] | % Response Antagonist (Dopamine D1 receptors) [%] | catalepsy (immobilized contact time) (rats [1]) | latent inhibition in acute d-AMPH-treated animals (rats [2]) | social interaction in NVHL rats versus Sham controls (rats [3]) | Ki (5HT4; receptor expressed in CHO cells) [nM] | time of peak cataleptic behavior post injection (rats [1]) [min] | antagonism of D2 autoreceptor-mediated decrease in tonic firing [4] | suppression of conditioned avoidance responding (avoidances) (rats [5])
COc1cc2c(cc1O)CN1CCc3cc(OC)c(O)cc3[C@H]1C2 [d-govadine] | 42 | 9 | 13.4 | 2380 | 2 | 82 | No evidence of catalepsy | restored LI | comparable levels of SI |  |  |  | 
COc1cc2c(cc1O)CN1CCc3cc(OC)c(O)cc3[C@@H]1C2 [l-govadine] |  | 12 |  | 16.6 | 2 | 87 | Catalepsy was observed | restored LI | comparable levels of SI | 2470 | 15 | antagonized | Suppression of conditioned avoidance responding was observed; also recorded: suppresses CAR
